# From the kinase profiling compilation of Christmann-Franck et al. (2016)
# Key:
# Assay in all cases: KINOMEscan competition binding
# Conditions in all cases: compound 10.0 µM
# FER (human) = FER (human) (UniProt P16591)
# SYK (human) = SYK (human) (UniProt P43405)
# [1] = system: EGFR (human), P00533 [L861Q]
# SIK1 (human) = SIK1 (human) (UniProt P57059)
# EPHA3 (human) = EPHA3 (human) (UniProt P29320)
# NTRK3 (human) = NTRK3 (human) (UniProt Q16288)
# [2] = system: KIT (human), P10721 [V559D/V654A]
# KIT (human), P10721 [V559D/V654A], sequence (P10721 whole entry V559D/V654A, looked up): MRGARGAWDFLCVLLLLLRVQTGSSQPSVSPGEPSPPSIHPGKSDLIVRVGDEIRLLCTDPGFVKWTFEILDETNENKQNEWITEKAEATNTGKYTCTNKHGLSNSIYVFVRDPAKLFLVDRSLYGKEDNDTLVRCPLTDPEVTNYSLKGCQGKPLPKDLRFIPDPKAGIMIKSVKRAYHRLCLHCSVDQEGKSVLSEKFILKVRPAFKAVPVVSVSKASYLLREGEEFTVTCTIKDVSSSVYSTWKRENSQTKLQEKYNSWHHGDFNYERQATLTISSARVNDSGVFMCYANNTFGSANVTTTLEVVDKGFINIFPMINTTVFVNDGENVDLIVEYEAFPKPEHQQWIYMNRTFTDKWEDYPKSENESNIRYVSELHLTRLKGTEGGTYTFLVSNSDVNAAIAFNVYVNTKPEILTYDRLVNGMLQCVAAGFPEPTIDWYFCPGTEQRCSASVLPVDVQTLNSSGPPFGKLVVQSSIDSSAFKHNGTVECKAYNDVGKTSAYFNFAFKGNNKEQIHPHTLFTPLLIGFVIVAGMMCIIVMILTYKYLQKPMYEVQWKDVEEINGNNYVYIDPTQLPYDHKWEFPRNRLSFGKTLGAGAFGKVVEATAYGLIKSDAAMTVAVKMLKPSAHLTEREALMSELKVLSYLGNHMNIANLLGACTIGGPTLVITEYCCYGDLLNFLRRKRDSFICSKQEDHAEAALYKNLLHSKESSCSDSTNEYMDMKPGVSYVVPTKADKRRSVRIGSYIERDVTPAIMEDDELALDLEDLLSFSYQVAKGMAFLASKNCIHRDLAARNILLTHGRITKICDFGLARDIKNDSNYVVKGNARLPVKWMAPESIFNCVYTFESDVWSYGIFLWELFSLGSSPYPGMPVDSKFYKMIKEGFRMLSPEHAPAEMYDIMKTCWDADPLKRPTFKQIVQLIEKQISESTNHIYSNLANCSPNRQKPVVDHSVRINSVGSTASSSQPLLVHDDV
# ULK3 (human) = ULK3 (human) (UniProt Q6PHR2)
# MAP4K4 (human) = MAP4K4 (human) (UniProt O95819)
# RET (human) = RET (human) (UniProt P07949)
# RET (human), sequence (P07949 whole entry, looked up): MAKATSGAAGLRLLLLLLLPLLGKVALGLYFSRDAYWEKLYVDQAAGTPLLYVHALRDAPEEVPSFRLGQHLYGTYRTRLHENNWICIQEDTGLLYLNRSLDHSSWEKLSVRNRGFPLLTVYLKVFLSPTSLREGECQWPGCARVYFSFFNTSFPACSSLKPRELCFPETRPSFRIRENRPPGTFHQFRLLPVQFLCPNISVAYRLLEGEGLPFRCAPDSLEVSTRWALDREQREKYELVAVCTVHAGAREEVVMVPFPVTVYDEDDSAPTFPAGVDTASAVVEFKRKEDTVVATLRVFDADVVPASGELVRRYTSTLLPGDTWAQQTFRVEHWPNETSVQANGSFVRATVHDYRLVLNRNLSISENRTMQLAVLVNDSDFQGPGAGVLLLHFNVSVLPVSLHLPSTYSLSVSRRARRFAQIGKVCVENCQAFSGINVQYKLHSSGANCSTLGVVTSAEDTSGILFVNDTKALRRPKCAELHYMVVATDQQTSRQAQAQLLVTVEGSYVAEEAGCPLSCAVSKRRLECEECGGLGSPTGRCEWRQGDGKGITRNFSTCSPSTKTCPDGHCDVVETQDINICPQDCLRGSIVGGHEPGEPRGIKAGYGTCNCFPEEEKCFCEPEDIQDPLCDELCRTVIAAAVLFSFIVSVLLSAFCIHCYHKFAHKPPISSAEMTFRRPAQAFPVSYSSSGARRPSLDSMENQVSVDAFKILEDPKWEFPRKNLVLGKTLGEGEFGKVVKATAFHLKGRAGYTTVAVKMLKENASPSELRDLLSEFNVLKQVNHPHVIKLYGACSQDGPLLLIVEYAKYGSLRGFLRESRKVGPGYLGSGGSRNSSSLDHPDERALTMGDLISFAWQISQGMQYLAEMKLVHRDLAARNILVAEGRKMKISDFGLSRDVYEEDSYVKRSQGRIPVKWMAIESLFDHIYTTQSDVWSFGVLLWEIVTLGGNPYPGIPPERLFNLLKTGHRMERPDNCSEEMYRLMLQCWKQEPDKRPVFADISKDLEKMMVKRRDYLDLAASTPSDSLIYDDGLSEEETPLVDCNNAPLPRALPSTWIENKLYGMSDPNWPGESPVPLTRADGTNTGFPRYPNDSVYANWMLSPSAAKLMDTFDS
# FRK (human) = FRK (human) (UniProt P42685)
# CAMK1D (human) = CAMK1D (human) (UniProt Q8IU85)
# [3] = target: JAK2 JH1 catalytic (human) (UniProt O60674)
# MAP4K1 (human) = MAP4K1 (human) (UniProt Q92918)
# RIPK1 (human) = RIPK1 (human) (UniProt Q13546)
# CDK16 (human) = CDK16 (human) (UniProt Q00536)
# STK10 (human) = STK10 (human) (UniProt O94804)
# MAP4K3 (human) = MAP4K3 (human) (UniProt Q8IVH8)
# PDGFRB (human) = PDGFRB (human) (UniProt P09619)
# CDK2 (human) = CDK2 (human) (UniProt P24941)
# [4] = system: KIT (human), P10721 [V559D]
# KIT (human), P10721 [V559D], sequence (P10721 whole entry V559D, looked up): as the sequence (P10721 whole entry V559D/V654A, looked up) above, with A654V counted along it
# DDR2 (human) = DDR2 (human) (UniProt Q16832)
# CAMKK2 (human) = CAMKK2 (human) (UniProt Q96RR4)
# MLTK (human) = MLTK (human) (UniProt Q9NYL2)
# KDR (human) = KDR (human) (UniProt P35968)
# CDK11B (human) = CDK11B (human) (UniProt P21127)
# MAPK8 (human) = MAPK8 (human) (UniProt P45983)
# CIT (human) = CIT (human) (UniProt O14578)
# TTK (human) = TTK (human) (UniProt P33981)
# MYO3A (human) = MYO3A (human) (UniProt Q8NEV4)
# MYO3A (human), sequence (Q8NEV4 whole entry, looked up): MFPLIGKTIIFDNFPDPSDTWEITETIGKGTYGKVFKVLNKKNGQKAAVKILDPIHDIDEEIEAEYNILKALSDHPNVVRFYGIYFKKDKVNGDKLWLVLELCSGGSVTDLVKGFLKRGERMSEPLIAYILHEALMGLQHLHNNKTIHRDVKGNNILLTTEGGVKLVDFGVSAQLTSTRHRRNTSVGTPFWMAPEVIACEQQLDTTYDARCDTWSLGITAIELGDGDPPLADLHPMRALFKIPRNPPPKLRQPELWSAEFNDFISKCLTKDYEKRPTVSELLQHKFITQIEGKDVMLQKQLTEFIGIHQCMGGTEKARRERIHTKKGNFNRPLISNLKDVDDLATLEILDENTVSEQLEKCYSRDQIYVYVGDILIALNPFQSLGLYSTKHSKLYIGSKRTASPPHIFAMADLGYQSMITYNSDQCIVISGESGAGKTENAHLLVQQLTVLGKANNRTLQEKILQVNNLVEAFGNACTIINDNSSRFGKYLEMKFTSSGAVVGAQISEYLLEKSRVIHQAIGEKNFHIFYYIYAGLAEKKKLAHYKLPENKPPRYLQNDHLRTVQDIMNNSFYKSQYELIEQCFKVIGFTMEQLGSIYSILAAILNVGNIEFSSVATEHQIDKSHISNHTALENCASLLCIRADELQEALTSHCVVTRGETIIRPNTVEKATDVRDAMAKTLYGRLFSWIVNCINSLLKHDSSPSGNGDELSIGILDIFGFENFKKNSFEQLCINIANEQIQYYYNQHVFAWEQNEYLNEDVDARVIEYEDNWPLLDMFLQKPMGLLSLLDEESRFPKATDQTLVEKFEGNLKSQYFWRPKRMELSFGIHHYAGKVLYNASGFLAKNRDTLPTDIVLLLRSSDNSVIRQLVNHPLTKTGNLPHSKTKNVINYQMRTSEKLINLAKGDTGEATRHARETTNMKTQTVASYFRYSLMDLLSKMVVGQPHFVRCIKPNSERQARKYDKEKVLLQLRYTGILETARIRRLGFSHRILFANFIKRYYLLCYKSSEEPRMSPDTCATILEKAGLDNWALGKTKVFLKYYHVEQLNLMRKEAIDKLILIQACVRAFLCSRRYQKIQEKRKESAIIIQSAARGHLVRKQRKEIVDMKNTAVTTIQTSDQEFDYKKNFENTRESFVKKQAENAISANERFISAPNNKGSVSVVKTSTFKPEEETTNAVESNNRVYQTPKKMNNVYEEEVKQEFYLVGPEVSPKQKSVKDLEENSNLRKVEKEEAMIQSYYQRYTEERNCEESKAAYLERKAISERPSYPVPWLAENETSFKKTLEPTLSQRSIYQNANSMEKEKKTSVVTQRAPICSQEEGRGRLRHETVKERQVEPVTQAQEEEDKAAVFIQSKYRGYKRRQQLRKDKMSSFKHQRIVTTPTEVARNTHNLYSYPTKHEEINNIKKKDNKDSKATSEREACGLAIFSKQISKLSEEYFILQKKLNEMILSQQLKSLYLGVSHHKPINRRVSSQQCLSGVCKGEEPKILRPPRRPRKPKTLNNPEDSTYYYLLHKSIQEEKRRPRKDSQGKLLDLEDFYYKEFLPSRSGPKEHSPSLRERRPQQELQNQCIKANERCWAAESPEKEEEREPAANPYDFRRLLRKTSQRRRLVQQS
# BMX (human) = BMX (human) (UniProt P51813)
# EPHA4 (human) = EPHA4 (human) (UniProt P54764)
# YES1 (human) = YES1 (human) (UniProt P07947)
# RPS6KA5 KD1 (human) = RPS6KA5 KD1 (human) (UniProt O75582)
# GAK (human) = GAK (human) (UniProt O14976)
# GAK (human), sequence (O14976 whole entry, looked up): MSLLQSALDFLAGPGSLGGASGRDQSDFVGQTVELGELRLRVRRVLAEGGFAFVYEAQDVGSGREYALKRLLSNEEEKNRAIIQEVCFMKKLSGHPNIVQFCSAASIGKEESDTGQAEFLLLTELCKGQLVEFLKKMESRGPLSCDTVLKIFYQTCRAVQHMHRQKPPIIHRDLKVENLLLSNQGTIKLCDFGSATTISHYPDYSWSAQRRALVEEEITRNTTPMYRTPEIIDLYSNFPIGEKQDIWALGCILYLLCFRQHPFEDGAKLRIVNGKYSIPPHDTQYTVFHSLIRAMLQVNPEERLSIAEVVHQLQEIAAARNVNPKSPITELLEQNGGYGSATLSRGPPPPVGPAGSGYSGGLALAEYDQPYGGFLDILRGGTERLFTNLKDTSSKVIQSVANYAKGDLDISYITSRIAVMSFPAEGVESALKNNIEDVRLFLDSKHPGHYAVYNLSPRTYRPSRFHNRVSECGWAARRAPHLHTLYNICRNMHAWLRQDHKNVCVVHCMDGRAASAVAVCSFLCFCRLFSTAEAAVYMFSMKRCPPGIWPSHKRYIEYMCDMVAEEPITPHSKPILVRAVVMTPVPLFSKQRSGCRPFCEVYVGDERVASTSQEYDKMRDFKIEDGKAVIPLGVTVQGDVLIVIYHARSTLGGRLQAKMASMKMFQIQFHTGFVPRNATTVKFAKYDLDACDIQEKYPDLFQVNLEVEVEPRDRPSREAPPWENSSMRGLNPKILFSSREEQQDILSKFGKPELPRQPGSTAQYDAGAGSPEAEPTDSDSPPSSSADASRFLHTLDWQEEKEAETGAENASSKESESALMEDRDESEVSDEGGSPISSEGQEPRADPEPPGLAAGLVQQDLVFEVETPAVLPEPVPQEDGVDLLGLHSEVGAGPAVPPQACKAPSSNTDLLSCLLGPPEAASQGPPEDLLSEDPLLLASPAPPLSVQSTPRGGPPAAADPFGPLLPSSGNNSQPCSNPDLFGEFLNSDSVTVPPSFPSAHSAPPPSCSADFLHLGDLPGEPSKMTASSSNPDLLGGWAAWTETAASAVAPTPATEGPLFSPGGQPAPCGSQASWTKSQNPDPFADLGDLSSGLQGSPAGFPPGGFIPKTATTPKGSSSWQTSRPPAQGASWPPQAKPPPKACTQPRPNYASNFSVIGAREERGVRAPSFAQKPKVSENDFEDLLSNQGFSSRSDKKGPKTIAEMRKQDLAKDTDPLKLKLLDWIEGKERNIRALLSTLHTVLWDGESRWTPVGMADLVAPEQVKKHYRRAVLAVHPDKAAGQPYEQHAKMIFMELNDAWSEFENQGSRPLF
# FGFR4 (human) = FGFR4 (human) (UniProt P22455)
# CSK (human) = CSK (human) (UniProt P41240)
# PTK2 (human) = PTK2 (human) (UniProt Q05397)
# LATS2 (human) = LATS2 (human) (UniProt Q9NRM7)
# MAP4K2 (human) = MAP4K2 (human) (UniProt Q12851)
# PRKAA1 (human) = PRKAA1 (human) (UniProt Q13131)
smiles,measurement,setting,value
CCN1CCN(Cc2ccc(NC(=O)c3ccc(C)c(Oc4ccnc5[nH]ccc45)c3)cc2C(F)(F)F)CC1,"kinase still bound, per cent of control",FER (human),0.5%
same,"kinase still bound, per cent of control",SYK (human),6.2%
same,"kinase still bound, per cent of control",[1],15%
same,"kinase still bound, per cent of control",SIK1 (human),5.3%
same,"kinase still bound, per cent of control",EPHA3 (human),3.4%
same,"kinase still bound, per cent of control",NTRK3 (human),3.8%
same,"kinase still bound, per cent of control",[2],2.7%
same,"kinase still bound, per cent of control",ULK3 (human),0.1%
same,"kinase still bound, per cent of control",MAP4K4 (human),0%
same,"kinase still bound, per cent of control",RET (human),0%
same,"kinase still bound, per cent of control",FRK (human),0.7%
same,"kinase still bound, per cent of control",CAMK1D (human),6.2%
same,"kinase still bound, per cent of control",[3],11%
same,"kinase still bound, per cent of control",MAP4K1 (human),1.6%
same,"kinase still bound, per cent of control",RIPK1 (human),0%
same,residual activity,CDK16 (human),11%
same,"kinase still bound, per cent of control",STK10 (human),0%
same,"kinase still bound, per cent of control",MAP4K3 (human),18%
same,"kinase still bound, per cent of control",PDGFRB (human),0%
same,residual activity,CDK2 (human),11%
same,"kinase still bound, per cent of control",[4],0%
same,"kinase still bound, per cent of control",DDR2 (human),5.1%
same,"kinase still bound, per cent of control",CAMKK2 (human),28%
same,"kinase still bound, per cent of control",MLTK (human),0.35%
same,"kinase still bound, per cent of control",KDR (human),1.5%
same,residual activity,CDK11B (human),0.35%
same,"kinase still bound, per cent of control",MAPK8 (human),0%
same,"kinase still bound, per cent of control",CIT (human),0.1%
same,"kinase still bound, per cent of control",TTK (human),24%
same,"kinase still bound, per cent of control",MYO3A (human),6.4%
same,"kinase still bound, per cent of control",BMX (human),2.4%
same,"kinase still bound, per cent of control",EPHA4 (human),5.8%
same,"kinase still bound, per cent of control",YES1 (human),1.6%
same,"kinase still bound, per cent of control",RPS6KA5 KD1 (human),4.7%
same,"kinase still bound, per cent of control",GAK (human),31%
same,"kinase still bound, per cent of control",FGFR4 (human),0.45%
same,"kinase still bound, per cent of control",CSK (human),0.45%
same,"kinase still bound, per cent of control",PTK2 (human),23%
same,"kinase still bound, per cent of control",LATS2 (human),13%
same,"kinase still bound, per cent of control",MAP4K2 (human),0.3%
same,"kinase still bound, per cent of control",PRKAA1 (human),33%
